{"source": "ChEMBL document CHEMBL3046013", "about": "“Pyrithiobac reduces control of green foxtail (Setaria viridis) and bristly foxtail (Setaria verticillata) by propaquizafop” (2009)", "assay_type_in_all_cases": "functional", "set-up_in_all_cases": "scale not given: the % may be the effect or the level left", "key": {"[1]": {"system": "Setaria verticillata", "assay": "Herbicidal activity against Setaria verticillata assessed as reduction of fresh weight at 125 g ai/ha after 45 days in presence of 68 g ai/ha of pyrithiobac relative to control"}, "[2]": {"system": "Setaria viridis", "assay": "Herbicidal activity against Setaria viridis (green foxtail) assessed as reduction of fresh weight at 75 g ai/ha after 45 days relative to control"}, "[3]": {"system": "Setaria viridis", "assay": "Herbicidal activity against Setaria viridis (green foxtail) assessed as reduction of fresh weight at 75 g ai/ha after 45 days in presence of 68 g ai/ha of pyrithiobac treated 3 days after compound challenge relative to control"}, "[4]": {"system": "Setaria viridis", "assay": "Herbicidal activity against Setaria viridis (green foxtail) assessed as reduction of fresh weight at 75 g ai/ha after 45 days in presence of 68 g ai/ha of pyrithiobac relative to control"}, "[5]": {"system": "Setaria viridis", "assay": "Herbicidal activity against Setaria viridis (green foxtail) assessed as reduction of fresh weight at 125 g ai/ha after 45 days in presence of 68 g ai/ha of pyrithiobac relative to control"}, "[6]": {"system": "Setaria verticillata", "assay": "Herbicidal activity against Setaria verticillata assessed as reduction of fresh weight at 150 g ai/ha after 45 days in presence of 68 g ai/ha of pyrithiobac relative to control"}, "[7]": {"system": "Setaria verticillata", "assay": "Herbicidal activity against Setaria verticillata assessed as reduction of fresh weight at 75 g ai/ha after 45 days relative to control in presence of ammonium sulphate"}, "[8]": {"system": "Setaria verticillata", "assay": "Herbicidal activity against Setaria verticillata assessed as reduction of fresh weight at 75 g ai/ha after 45 days in presence of 68 g ai/ha of pyrithiobac relative to control"}, "[9]": {"system": "Setaria verticillata", "assay": "Herbicidal activity against Setaria verticillata assessed as reduction of fresh weight at 75 g ai/ha after 45 days in presence of 68 g ai/ha of pyrithiobac treated 3 days after compound challenge relative to control"}, "[10]": {"system": "Setaria viridis", "assay": "Herbicidal activity against Setaria viridis (green foxtail) assessed as reduction of fresh weight at 100 g ai/ha after 45 days in presence of 68 g ai/ha of pyrithiobac relative to control"}, "[11]": {"system": "Setaria viridis", "assay": "Herbicidal activity against Setaria viridis (green foxtail) assessed as reduction of fresh weight at 75 g ai/ha after 45 days in presence of 68 g ai/ha of pyrithiobac treated 1 day after compound challenge relative to control"}, "[12]": {"system": "Setaria verticillata", "assay": "Herbicidal activity against Setaria verticillata assessed as reduction of fresh weight at 150 g ai/ha after 45 days relative to control"}, "[13]": {"system": "Setaria verticillata", "assay": "Herbicidal activity against Setaria verticillata assessed as reduction of fresh weight at 75 g ai/ha after 45 days relative to control"}, "[14]": {"system": "Setaria viridis", "assay": "Herbicidal activity against Setaria viridis (green foxtail) assessed as reduction of fresh weight at 125 g ai/ha after 45 days relative to control"}, "[15]": {"system": "Setaria verticillata", "assay": "Herbicidal activity against Setaria verticillata assessed as reduction of fresh weight at 100 g ai/ha after 45 days in presence of 68 g ai/ha of pyrithiobac relative to control"}, "[16]": {"system": "Setaria verticillata", "assay": "Herbicidal activity against Setaria verticillata assessed as reduction of fresh weight at 125 g ai/ha after 45 days relative to control"}, "[17]": {"system": "Setaria viridis", "assay": "Herbicidal activity against Setaria viridis (green foxtail) assessed as reduction of fresh weight at 75 g ai/ha after 45 days in presence of 68 g ai/ha of pyrithiobac and ammonium sulphate relative to control"}, "[18]": {"system": "Setaria verticillata", "assay": "Herbicidal activity against Setaria verticillata assessed as reduction of fresh weight at 75 g ai/ha after 45 days in presence of 68 g ai/ha of pyrithiobac treated 1 day after compound challenge relative to control"}, "[19]": {"system": "Setaria viridis", "assay": "Herbicidal activity against Setaria viridis (green foxtail) assessed as reduction of fresh weight at 100 g ai/ha after 45 days relative to control"}, "[20]": {"system": "Setaria viridis", "assay": "Herbicidal activity against Setaria viridis (green foxtail) assessed as reduction of fresh weight at 150 g ai/ha after 45 days relative to control"}, "[21]": {"system": "Setaria verticillata", "assay": "Herbicidal activity against Setaria verticillata assessed as reduction of fresh weight at 75 g ai/ha after 45 days in presence of 68 g ai/ha of pyrithiobac treated 1 day before compound challenge relative to control"}, "[22]": {"system": "Setaria viridis", "assay": "Herbicidal activity against Setaria viridis (green foxtail) assessed as reduction of fresh weight at 75 g ai/ha after 45 days in presence of 68 g ai/ha of pyrithiobac treated 1 day before compound challenge relative to control"}, "[23]": {"system": "Setaria verticillata", "assay": "Herbicidal activity against Setaria verticillata assessed as reduction of fresh weight at 100 g ai/ha after 45 days relative to control"}, "[24]": {"system": "Setaria viridis", "assay": "Herbicidal activity against Setaria viridis (green foxtail) assessed as reduction of fresh weight at 75 g ai/ha after 45 days relative to control in presence of ammonium sulphate"}, "[25]": {"system": "Setaria viridis", "assay": "Herbicidal activity against Setaria viridis (green foxtail) assessed as reduction of fresh weight at 75 g ai/ha after 45 days in presence of 68 g ai/ha of pyrithiobac treated 3 days before compound challenge relative to control"}, "[26]": {"system": "Setaria viridis", "assay": "Herbicidal activity against Setaria viridis (green foxtail) assessed as reduction of fresh weight at 150 g ai/ha after 45 days in presence of 68 g ai/ha of pyrithiobac relative to control"}, "[27]": {"system": "Setaria verticillata", "assay": "Herbicidal activity against Setaria verticillata assessed as reduction of fresh weight at 75 g ai/ha after 45 days in presence of 68 g ai/ha of pyrithiobac treated 3 days before compound challenge relative to control"}}, "data": [{"smiles": "CC(C)=NOCCOC(=O)[C@@H](C)Oc1ccc(Oc2cnc3cc(Cl)ccc3n2)cc1", "note": "[PROPAQUIZAFOP]", "values": [{"measurement": "Activity", "setting": "[1]", "result": 78, "unit": "%"}, {"measurement": "Activity", "setting": "[2]", "result": 86, "unit": "%"}, {"measurement": "Activity", "setting": "[3]", "result": 85, "unit": "%"}, {"measurement": "Activity", "setting": "[4]", "result": 53, "unit": "%"}, {"measurement": "Activity", "setting": "[5]", "result": 66, "unit": "%"}, {"measurement": "Activity", "setting": "[6]", "result": 83, "unit": "%"}, {"measurement": "Activity", "setting": "[7]", "result": 94, "unit": "%"}, {"measurement": "Activity", "setting": "[8]", "result": 70, "unit": "%"}, {"measurement": "Activity", "setting": "[9]", "result": 93, "unit": "%"}, {"measurement": "Activity", "setting": "[10]", "result": 59, "unit": "%"}, {"measurement": "Activity", "setting": "[11]", "result": 82, "unit": "%"}, {"measurement": "Activity", "setting": "[12]", "result": 100, "unit": "%"}, {"measurement": "Activity", "setting": "[13]", "result": 92, "unit": "%"}, {"measurement": "Activity", "setting": "[14]", "result": 97, "unit": "%"}, {"measurement": "Activity", "setting": "[15]", "result": 73, "unit": "%"}, {"measurement": "Activity", "setting": "[16]", "result": 99, "unit": "%"}, {"measurement": "Activity", "setting": "[17]", "result": 57, "unit": "%"}, {"measurement": "Activity", "setting": "[18]", "result": 90, "unit": "%"}, {"measurement": "Activity", "setting": "[19]", "result": 91, "unit": "%"}, {"measurement": "Activity", "setting": "[20]", "result": 99, "unit": "%"}, {"measurement": "Activity", "setting": "[21]", "result": 75, "unit": "%"}, {"measurement": "Activity", "setting": "[22]", "result": 56, "unit": "%"}, {"measurement": "Activity", "setting": "[23]", "result": 95, "unit": "%"}, {"measurement": "Activity", "setting": "[24]", "result": 89, "unit": "%"}, {"measurement": "Activity", "setting": "[25]", "result": 66, "unit": "%"}, {"measurement": "Activity", "setting": "[26]", "result": 72, "unit": "%"}, {"measurement": "Activity", "setting": "[27]", "result": 81, "unit": "%"}]}]}
